According to patent US20160158200A1, “Combinations of Hepatitis C Virus Inhibitors” (priority 2013, published 2016):

System: HCV genotype-1a variant with glutamine 30 changed to glutamate in the NS5A protein
Format: cell-based
Conditions: test compound titrated with BMS-790052 fixed at 200 nM; genotype 1a Q30E replicon
Outline: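 Synergy was assessed by combining several fixed amounts of an NS5A-targeting compound with a titration of the second compound of interest.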

SMILES	Fold-Synergistic 1a (Q30E)
CC(C)(C)OC(=O)N1CCCC1C(=O)N[C@H](c1nc(-c2ccc(-c3ccc(-c4c[nH]c([C@@H](NC(=O)C5CCCN5C(=O)OC(C)(C)C)C(C)(C)C)n4)cc3)cc2)c[nH]1)C(C)(C)C (some centres unmarked) [Compound W-86]	>100 fold
CC(C)(C)OC(=O)N1CCCC1C(=O)NC(c1nc(-c2ccc(-c3ccc(-c4c[nH]c(C(NC(=O)C5CCCN5C(=O)OC(C)(C)C)C(C)(C)C)n4)cc3)cc2)c[nH]1)C(C)(C)C (centres unmarked) [Compound W-87]	>100 fold
CC(C)(C)OC(=O)N1CC(F)(F)C[C@H]1C(=O)N[C@H](c1nc(-c2ccc(-c3ccc(-c4c[nH]c([C@@H](NC(=O)[C@@H]5CC(F)(F)CN5C(=O)OC(C)(C)C)C(C)(C)C)n4)cc3)cc2)c[nH]1)C(C)(C)C [Compound W-88]	>100 fold
C=C1C[C@@H](C(=O)N[C@H](c2nc(-c3ccc(-c4ccc(-c5c[nH]c([C@@H](NC(=O)[C@@H]6CC(=C)CN6C(=O)OC(C)(C)C)C(C)C)n5)cc4)cc3)c[nH]2)C(C)C)N(C(=O)OC(C)(C)C)C1 [Compound W-89]	>100 fold
C=C1C[C@@H](C(=O)N[C@H](c2nc(-c3ccc(-c4ccc(-c5c[nH]c([C@@H](NC(=O)[C@@H]6CC(=C)CN6C(=O)OC(C)(C)C)C(C)(C)C)n5)cc4)cc3)c[nH]2)C(C)(C)C)N(C(=O)OC(C)(C)C)C1 [Compound W-91]	>100 fold
CC(C)(C)[C@H](NC(=O)C12CCC(CC1)N2)c1nc(-c2ccc(-c3ccc(-c4c[nH]c([C@@H](NC(=O)C56CCC(CC5)N6)C(C)(C)C)n4)cc3)cc2)c[nH]1.Cl.Cl.Cl.Cl [Compound W-92]	>10 fold
CC1(C)C[C@@H](C(=O)N[C@H](c2nc(-c3ccc(-c4ccc(-c5c[nH]c([C@@H](NC(=O)[C@@H]6CC(C)(C)CN6C(=O)OC(C)(C)C)C(C)(C)C)n5)cc4)cc3)c[nH]2)C(C)(C)C)N(C(=O)OC(C)(C)C)C1 [Compound W-93]	>100 fold
CC(C)(C)OC(=O)N1CC2(CC2)C[C@H]1C(=O)N[C@H](c1nc(-c2ccc(-c3ccc(-c4c[nH]c([C@@H](NC(=O)[C@@H]5CC6(CC6)CN5C(=O)OC(C)(C)C)C(C)(C)C)n4)cc3)cc2)c[nH]1)C(C)(C)C [Compound W-94]	>100 fold
CC(C)C(NC(=O)C1CC(O)CN1C(=O)OC(C)(C)C)c1nc(-c2ccc(-c3ccc(-c4c[nH]c(C(NC(=O)C5CC(O)CN5C(=O)OC(C)(C)C)C(C)C)n4)cc3)cc2)c[nH]1 (centres unmarked) [Compound W-100]	>100 fold
CC(C)(C)[C@H](NC(=O)[C@@H]1C[C@@H](F)CN1)c1nc(-c2ccc(-c3ccc(-c4c[nH]c([C@@H](NC(=O)[C@@H]5C[C@@H](F)CN5)C(C)(C)C)n4)cc3)cc2)c[nH]1 [Compound W-101, (2S,2'S,4R,4′R)—N,N′-((1S,1′S)-(4,4′-([1,1′-biphenyl]-4,4′-diyl)bis(1H-imidazole-4,2-diyl))bis(2,2-dimethylpropane-1,1-diyl))bis(4-fluoropyrrolidine-2-carboxamide)]	>10 fold
CC(=O)N1C[C@H](F)C[C@H]1C(=O)N[C@H](c1nc(-c2ccc(-c3ccc(-c4c[nH]c([C@@H](NC(=O)[C@@H]5C[C@@H](F)CN5C(C)=O)C(C)(C)C)n4)cc3)cc2)c[nH]1)C(C)(C)C [Compound W-102]	>10 fold
COCCC(=O)N1C[C@H](F)C[C@H]1C(=O)N[C@H](c1nc(-c2ccc(-c3ccc(-c4c[nH]c([C@@H](NC(=O)[C@@H]5C[C@@H](F)CN5C(=O)CCOC)C(C)(C)C)n4)cc3)cc2)c[nH]1)C(C)(C)C [Compound W-103]	>100 fold
CC(C)(C)C(NC(=O)C1CC(F)CN1C(=O)OC1CCCC1)c1nc(-c2ccc(-c3ccc(-c4c[nH]c(C(NC(=O)C5CC(F)CN5C(=O)OC5CCCC5)C(C)(C)C)n4)cc3)cc2)c[nH]1 (centres unmarked) [Compound W-111]	>100 fold
COC(=O)N1C2CCC1(C(=O)N[C@H](c1nc(-c3ccc(-c4ccc(-c5c[nH]c([C@@H](NC(=O)C67CCC(CC6)N7C(=O)OC)C(C)(C)C)n5)cc4)cc3)c[nH]1)C(C)(C)C)CC2.O=C(O)C(F)(F)F.O=C(O)C(F)(F)F [Compound W-117]	>100 fold
